Data from PubChem BioAssay (NCI).
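Cultured in 96-well plates, cells were exposed to test compound for 48 hours across five concentrations. GI50 is the concentration that inhibits growth by half. TGI: concentration producing complete growth inhibition.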

Legend:
Test in all cases: NCI-60 cell line screen, 48 h
SNB-75 CNS = test system: SNB-75 CNS
CCRF-CEM leukemia = test system: CCRF-CEM leukemia
NCI/ADR-RES ovarian = test system: NCI/ADR-RES ovarian
LOX IMVI melanoma = test system: LOX IMVI melanoma
MOLT-4 leukemia = test system: MOLT-4 leukemia
RPMI-8226 leukemia = test system: RPMI-8226 leukemia
HCT-15 colon = test system: HCT-15 colon
MCF7 breast = test system: MCF7 breast
SK-OV-3 ovarian = test system: SK-OV-3 ovarian
SF-539 CNS = test system: SF-539 CNS
UO-31 renal = test system: UO-31 renal
MALME-3M melanoma = test system: MALME-3M melanoma
PC-3 prostate = test system: PC-3 prostate
KM12 colon = test system: KM12 colon
OVCAR-8 ovarian = test system: OVCAR-8 ovarian
SK-MEL-5 melanoma = test system: SK-MEL-5 melanoma
UACC-257 melanoma = test system: UACC-257 melanoma
EKVX NSCLC = test system: EKVX NSCLC
K-562 leukemia = test system: K-562 leukemia
M14 melanoma = test system: M14 melanoma
BT-549 breast = test system: BT-549 breast
UACC-62 melanoma = test system: UACC-62 melanoma
HS 578T breast = test system: HS 578T breast
OVCAR-3 ovarian = test system: OVCAR-3 ovarian
SK-MEL-2 melanoma = test system: SK-MEL-2 melanoma
DU-145 prostate = test system: DU-145 prostate
SF-295 CNS = test system: SF-295 CNS
CAKI-1 renal = test system: CAKI-1 renal
SNB-19 CNS = test system: SNB-19 CNS
T-47D breast = test system: T-47D breast
HCC-2998 colon = test system: HCC-2998 colon
NCI-H522 lung = test system: NCI-H522 lung
ACHN renal = test system: ACHN renal
NCI-H226 lung = test system: NCI-H226 lung
HOP-92 NSCLC = test system: HOP-92 NSCLC
COLO 205 colon = test system: COLO 205 colon
HT29 colon = test system: HT29 colon
A549 NSCLC = test system: A549 NSCLC
IGROV1 ovarian = test system: IGROV1 ovarian
786-0 renal = test system: 786-0 renal
OVCAR-4 ovarian = test system: OVCAR-4 ovarian
SK-MEL-28 melanoma = test system: SK-MEL-28 melanoma
A498 renal = test system: A498 renal
MDA-MB-435 = test system: MDA-MB-435
TK-10 renal = test system: TK-10 renal
NCI-H460 lung = test system: NCI-H460 lung
SW-620 colon = test system: SW-620 colon
RXF 393 renal = test system: RXF 393 renal
NCI-H23 lung = test system: NCI-H23 lung
SF-268 CNS = test system: SF-268 CNS
HL-60(TB) leukemia = test system: HL-60(TB) leukemia
HCT-116 colon = test system: HCT-116 colon
OVCAR-5 ovarian = test system: OVCAR-5 ovarian
SN12C renal = test system: SN12C renal
MDA-MB-231 breast = test system: MDA-MB-231 breast
U251 CNS = test system: U251 CNS
HOP-62 NSCLC = test system: HOP-62 NSCLC

Compound `CC(C)(C)CC(C)(C)c1ccc(OCCSC(=N)N)cc1` has a GI50 (SNB-75 CNS) of 1430 nM, a TGI (SNB-75 CNS) of 2790 nM and a GI50 (CCRF-CEM leukemia) of 1990 nM. It also gave a TGI (CCRF-CEM leukemia) of 5320 nM, a GI50 (NCI/ADR-RES ovarian) of 1870 nM and a TGI (NCI/ADR-RES ovarian) of 3880 nM. For the same compound, the GI50 (LOX IMVI melanoma) was 1480 nM, the TGI (LOX IMVI melanoma) was 2920 nM and the GI50 (MOLT-4 leukemia) was 1700 nM. For the same compound, the TGI (MOLT-4 leukemia) was 4800 nM, the GI50 (RPMI-8226 leukemia) was 1360 nM and the TGI (RPMI-8226 leukemia) was 3590 nM. The GI50 (HCT-15 colon) was 1060 nM, the TGI (HCT-15 colon) was 2380 nM and the GI50 (MCF7 breast) was 1320 nM. The TGI (MCF7 breast) was 3000 nM, the GI50 (SK-OV-3 ovarian) was 2570 nM and the TGI (SK-OV-3 ovarian) was 5540 nM. It also gave a GI50 (SF-539 CNS) of 1750 nM, a TGI (SF-539 CNS) of 3350 nM and a GI50 (UO-31 renal) of 1580 nM. The TGI (UO-31 renal) was 3970 nM, the GI50 (MALME-3M melanoma) was 1810 nM and the TGI (MALME-3M melanoma) was 3460 nM. It also gave a GI50 (PC-3 prostate) of 1610 nM, a TGI (PC-3 prostate) of 4170 nM and a GI50 (KM12 colon) of 1500 nM. It also gave a TGI (KM12 colon) of 3050 nM, a GI50 (OVCAR-8 ovarian) of 2080 nM and a TGI (OVCAR-8 ovarian) of 5080 nM. For the same compound, the GI50 (SK-MEL-5 melanoma) was 1370 nM, the TGI (SK-MEL-5 melanoma) was 2680 nM and the GI50 (UACC-257 melanoma) was 1720 nM. For the same compound, the TGI (UACC-257 melanoma) was 3450 nM, the GI50 (EKVX NSCLC) was 1410 nM and the TGI (EKVX NSCLC) was 2980 nM. For the same compound, the GI50 (K-562 leukemia) was 833 nM, the TGI (K-562 leukemia) was 3860 nM and the GI50 (M14 melanoma) was 1680 nM. For the same compound, the TGI (M14 melanoma) was 3420 nM, the GI50 (BT-549 breast) was 2020 nM and the TGI (BT-549 breast) was 4800 nM. For the same compound, the GI50 (UACC-62 melanoma) was 1720 nM, the TGI (UACC-62 melanoma) was 3160 nM and the GI50 (HS 578T breast) was 2150 nM. It also gave a TGI (HS 578T breast) of 5420 nM, a GI50 (OVCAR-3 ovarian) of 1470 nM and a TGI (OVCAR-3 ovarian) of 2890 nM. The GI50 (SK-MEL-2 melanoma) was 1960 nM, the TGI (SK-MEL-2 melanoma) was 3700 nM and the GI50 (DU-145 prostate) was 1740 nM. It also gave a TGI (DU-145 prostate) of 3220 nM, a GI50 (SF-295 CNS) of 1690 nM and a TGI (SF-295 CNS) of 3120 nM. The GI50 (CAKI-1 renal) was 3130 nM, the TGI (CAKI-1 renal) was 13600 nM and the GI50 (SNB-19 CNS) was 1700 nM. For the same compound, the TGI (SNB-19 CNS) was 3450 nM, the GI50 (T-47D breast) was 1630 nM and the TGI (T-47D breast) was 3910 nM. It also gave a GI50 (HCC-2998 colon) of 610 nM, a TGI (HCC-2998 colon) of 1880 nM and a GI50 (NCI-H522 lung) of 1590 nM. For the same compound, the TGI (NCI-H522 lung) was 3450 nM, the GI50 (ACHN renal) was 1640 nM and the TGI (ACHN renal) was 3270 nM. The GI50 (NCI-H226 lung) was 1930 nM, the TGI (NCI-H226 lung) was 5830 nM and the GI50 (HOP-92 NSCLC) was 1140 nM. It also gave a TGI (HOP-92 NSCLC) of 2570 nM, a GI50 (COLO 205 colon) of 564 nM and a TGI (COLO 205 colon) of 2010 nM. The GI50 (HT29 colon) was 417 nM, the TGI (HT29 colon) was 1850 nM and the GI50 (A549 NSCLC) was 1910 nM. It also gave a TGI (A549 NSCLC) of 4430 nM, a GI50 (IGROV1 ovarian) of 2310 nM and a TGI (IGROV1 ovarian) of 5200 nM. For the same compound, the GI50 (786-0 renal) was 1510 nM, the TGI (786-0 renal) was 3090 nM and the GI50 (OVCAR-4 ovarian) was 1430 nM. It also gave a TGI (OVCAR-4 ovarian) of 2910 nM, a GI50 (SK-MEL-28 melanoma) of 1700 nM and a TGI (SK-MEL-28 melanoma) of 3340 nM. For the same compound, the GI50 (A498 renal) was 2340 nM, the TGI (A498 renal) was 11500 nM and the GI50 (MDA-MB-435) was 1450 nM. For the same compound, the TGI (MDA-MB-435) was 2800 nM, the GI50 (TK-10 renal) was 1760 nM and the TGI (TK-10 renal) was 3340 nM. It also gave a GI50 (NCI-H460 lung) of 1890 nM, a TGI (NCI-H460 lung) of 3870 nM and a GI50 (SW-620 colon) of 1450 nM. It also gave a TGI (SW-620 colon) of 3340 nM, a GI50 (RXF 393 renal) of 1180 nM and a TGI (RXF 393 renal) of 2580 nM. It also gave a GI50 (NCI-H23 lung) of 1810 nM, a TGI (NCI-H23 lung) of 3680 nM and a GI50 (SF-268 CNS) of 2010 nM. For the same compound, the TGI (SF-268 CNS) was 4050 nM, the GI50 (HL-60(TB) leukemia) was 1600 nM and the TGI (HL-60(TB) leukemia) was 3520 nM. It also gave a GI50 (HCT-116 colon) of 1380 nM, a TGI (HCT-116 colon) of 2850 nM and a GI50 (OVCAR-5 ovarian) of 1880 nM. For the same compound, the TGI (OVCAR-5 ovarian) was 3770 nM, the GI50 (SN12C renal) was 1680 nM and the TGI (SN12C renal) was 3210 nM. It also gave a GI50 (MDA-MB-231 breast) of 1220 nM, a TGI (MDA-MB-231 breast) of 2800 nM and a GI50 (U251 CNS) of 1570 nM. For the same compound, the TGI (U251 CNS) was 3170 nM, the GI50 (HOP-62 NSCLC) was 2150 nM and the TGI (HOP-62 NSCLC) was 4000 nM.
